Data on one molecule can be found in ChEMBL document CHEMBL1155515, “Discovery of novel selective norepinephrine reuptake inhibitors: 4-[3-aryl-2,2-dioxido-2,1,3-benzothiadiazol-1(3H)-yl]-1-(methylamino)butan-2-ols (WYE-103231)” (J Med Chem, 2010).

SMILES strings stand for the structures.

Holding throughout (type): ADME, organism-based
The nature of data set [1]: Cmax in intact female rat at 5 mg/kg, po. Also noted: dose 5 mg/kg, route oral. Particulars: in vivo.
A short description of data set [2]: Oral bioavailability in male rat at 10 mg/kg. The following applies: in vivo.
A short description of data set [3]: Oral bioavailability in ovariectomised female rat at 5 mg/kg. The following applies: in vivo.
Data set [4] can be described thus: AUC (0 to infinity) in male rat at 2 mg/kg, iv. On the set-up: time infinity, dose 2 mg/kg, route intravenous. The following applies: plasma.
Data set [5] in a line: AUC (0 to infinity) in intact female rat at 5 mg/kg, po. Also noted: time infinity, dose 5 mg/kg, route oral. The following applies: plasma.
Data set [6] is described as follows: Ratio of drug level from brain to plasma in ovariectomised female rat. Particulars: read-out: BPR.
Data set [7] is described as follows: Oral bioavailability in intact female rat at 5 mg/kg. The following applies: in vivo.
The nature of data set [8]: Cmax in ovariectomised female rat at 5 mg/kg, po. Also noted: dose 5 mg/kg, route oral. The following applies: in vivo.
Data set [9] is described as follows: Tmax in intact female rat at 5 mg/kg, po. Also noted: dose 5 mg/kg, route oral. The following applies: in vivo.
Data set [10] is described as follows: AUC (0 to infinity) in male rat at 10 mg/kg, po. On the set-up: time infinity, dose 10 mg/kg, route oral. The following applies: plasma.
The nature of data set [11]: Tmax in male rat at 10 mg/kg, po. On the set-up: dose 10 mg/kg, route oral. The following applies: in vivo.
Data set [12] can be described thus: Volume of distribution at steady state in ovariectomised female rat at 2 mg/kg, iv. Also noted: dose 2 mg/kg, route intravenous. The following applies: in vivo, read-out: Vdss.
The nature of data set [13]: Cmax in male rat at 10 mg/kg, po. Also noted: dose 10 mg/kg, route oral. The following applies: in vivo.
Data set [14] in a line: AUC (0 to infinity) in ovariectomised female rat at 5 mg/kg, po. Particulars: plasma. Also noted: dose 5 mg/kg, route oral, time infinity.
Data set [15] is described as follows: Volume of distribution at steady state in intact female rat at 2 mg/kg, iv. On the set-up: dose 2 mg/kg, route intravenous. Particulars: in vivo, read-out: Vdss.
A short description of data set [16]: AUC (0 to infinity) in ovariectomised female rat at 2 mg/kg, iv. On the set-up: time infinity, dose 2 mg/kg, route intravenous. The following applies: plasma.
Data set [17] is described as follows: Volume of distribution at steady state in male rat at 2 mg/kg, iv. On the set-up: dose 2 mg/kg, route intravenous. The following applies: in vivo, read-out: Vdss.
A short description of data set [18]: AUC (0 to infinity) in intact female rat at 2 mg/kg, iv. The following applies: plasma. On the set-up: time infinity, dose 2 mg/kg, route intravenous.
A short description of data set [19]: Tmax in ovariectomised female rat at 5 mg/kg, po. Also noted: dose 5 mg/kg, route oral. The following applies: in vivo.

The term Cmax denotes the maximum level reached in the sampled fluid or tissue. In general, bioavailability refers to the share of a dose that reaches the circulation, judged against a reference dose that is usually intravenous. The low end stands for little systemic uptake, the high end for much systemic uptake. For orientation: AUC(0-inf) means the area under the concentration-time curve extrapolated to infinity. A higher AUC(0-inf) goes with high exposure. The term Tmax denotes the time from dosing to the highest level. As for `CNC[C@@H](O)CCN1c2ccccc2N(c2ccccc2F)S1(=O)=O`, the figures for the Cmax in data set [1], in data set [8] and in [13] were 135 ng/mL, 125 ng/mL and 154 ng/mL, respectively. Also, the bioavailability in [2] was determined as 100%; in data set [3], 95.2%; in data set [7] it was 41.3%. The AUC(0-inf) in [4] was 199 ng·h/mL; in [5] it was 959 ng·h/mL; in data set [10], 1040 ng·h/mL; in data set [14], 1200 ng·h/mL; in data set [16], 505 ng·h/mL; in data set [18], 929 ng·h/mL. For the same molecule, in [6], the Kp is 3.6. Also, the Tmax in data set [9] was 0.56 h; in data set [11] it was 1.38 h; in [19], 1.63 h. The Vd came out at 25.3 L/kg in data set [12], 11.3 L/kg in [15] and 36.3 L/kg in data set [17].
